The results in this text go back to patent publication US20030148518A1, “Method for mass propogation of podophyllum hexandrum royle using embryo culture technique” (priority 2001, published 2003).

Assay [1] relates to Podophyllum hexandrum zygotic embryos. In words: Germination of excised zygotic embryos cultured on different media supplemented with Gibberellic acid. As to conditions: 2.5 μM Gibberellic acid in different media (B5, MS, WPM); excised zygotic embryos of different regimes. The method, then: (§1) To describe in detail, the method comprises collection of mature pods of P. hexandrum Royle from their natural habitats in the Western Himalayas at an altitude ranging from 2700 m-3500 m above mean sea level during the last week of August and first week of September. Immediately after collection, the seeds were separated from the pulp. Prior to disinfection with 0.1% Bavistin and streptomycin sulphate (0.1%) for 15 minutes, followed by a thorough washing of seeds. After a 1 minute dip in 70% alcohol and surface sterilization in 0.1% mercuric chloride for 7 minutes, all traces of mercuric chloride were finally washed off by 4-5 rinses in sterile distilled water. The surface sterilized seeds were then dissected by a sharp excision with a scalpel blade at the base of the microplyar lobe and embryos were carefully squeezed out of their micropylar groove. The embryos were cultured on B-5 (Gamborg et al., 1968) medium supplemented with 3% sucrose of pH 5.8 adjusted with 1N KOH and HCl prior to the addition of agar (0.8%) and were finally sterilized at […] for 20 minutes. All the cultures were maintained in this medium for one week at 25±2° C. in dark for embryo germination. […]

Assay [2] concerns Podophyllum hexandrum emblings. In words: True leaf emergence after embling development and field transfer. As to conditions: media supplemented with 2.5 μM Gibberellic acid; after 12 weeks of field transfer. Here is the method: as §1

Take `C=C1C[C@]23C[C@@]1(O)CC[C@H]2[C@@]12C=C[C@H](O)[C@@](C)(C(=O)O1)[C@H]2[C@@H]3C(=O)O` [Gibberellic acid]: the embryo germination entry in assay [1] is “Germination was evoked in all the media”. Further, the true leaf emergence entry in assay [2] is “no true leaf emergence was recorded”.
